Measured values as given in patent publication US20070270403A1 (priority 2003, published 2007).
Read-outs that look alike come from different tables or passages of the source.

How the values were obtained:
[1] = tested on: DA release in NAcc; experiment: In vivo microvoltammetry, DA release in NAcc (clozapine studies); design: species or system Sprague-Dawley Rattus Norvegicus; conditions: Subacute, cocaine 10 mg/kg i.p. on Day 1, hr period of study
Method: (§1) There is an increasing awareness that a psychosis, similar to that of schizophrenic psychosis, can be derived from cocaine addiction. […] Release mechanisms for monoamines, were determined by using a depolarization blocker, gamma-butyrolactone (γBL). […] Acute and Subacute studies were performed for each treatment group.
(§2) The stereotaxic equipment was purchased from David Kopf Instruments, Tujunga, Calif. A Ag/AgCl reference electrode was placed in contact with dura, 7 mm anteriorally and contralaterally to the indicator microelectrode. A stainless steel auxiliary microelectrode was placed in contact with dura. BRODERICK PROBE® microelectrodes were manufactured on site.
(§3) In vivo microvoltammetric studies on conscious Sprague-Dawley laboratory rats were begun nine to fifteen days after the aseptic surgical operations were performed. On each experimental day, the animal was placed in a Plexiglas-copper faradaic chamber. The three-microelectrode assembly, enclosed within the animal's prosthetic acrylic cap, was connected to a CV37 detector by means of a mercury commutator (Br. Res. Instr., Princeton, N.J.), a flexible cable, and a mating connector (BJM Electronics, Staten Island, N.Y.). The CV37 detector was electrically connected to a Minigard surge suppresser (Jefferson Electric, Magnetek, N.Y.) which was then connected to an electrical ground in isolation. […] Each animal was used as its own control. Changes in synaptic concentrations of DA and 5-HT are presented as percent change (% of control) in order to minimize normal between-animal variations. […] In vivo microvoltammetric scans were recorded in sec and repeated every five min for a period of 2 hrs before each treatment and a period of two hrs after each treatment.
(§4) Potentials were applied with a CV37 detector (BAS, West Lafayette, Ind.). Potentials were applied from −0.2V to +0.4V with respect to a Ag/AgCl (1M NaCl) electrode, at a scan rate of 10 mV/sec at time constants of 5 and 1 tau. One scan was completed in 60 sec. Non-faradaic charging current was eliminated in the first 25 sec.
(§5) Calibration curves were determined experimentally, in vitro, in a freshly prepared deoxygenated physiological saline-phosphate buffer solution (0.01 M, pH=7.4). We use ultra pure Nitrogen (N2) (T. W. Smith Corp., Bklyn, N.Y.) to deoxygenate the buffer solution. […] Calibration studies were also performed in freshly prepared deoxygenated buffer solutions containing phosphotidylethanolamine (PEA), combined with bovine serum albumin (BSA) (Sigma Aldrich, St. Louis, Mo.), a solution which closely mimics brain constituents. […] Detection limits for basal synaptic concentrations of DA and 5-HT in NAcc were 12 nM and 2 nM respectively.

[2] = tested on: 5-HT release in NAcc; experiment: In vivo microvoltammetry, 5-HT release in NAcc (clozapine studies); design: species or system Sprague-Dawley Rattus Norvegicus
Method: as §1, §2, §3, §4, §5

[3] = tested on: 5-HT release in NAcc; experiment: In vivo microvoltammetry, 5-HT release in NAcc (risperidone studies); design: species or system Sprague-Dawley Rattus Norvegicus; conditions: Subacute, cocaine 10 mg/kg i.p. on Day 1
Method: In vivo microvoltammetry was used to detect dopamine (DA) and serotonin (5-HT) release from Nucleus Accumbens (NAcc) of freely moving, male, Sprague Dawley laboratory rats, while animals' locomotor (forward ambulations) and stereotypic behavior (fine movements of sniffing and grooming) were monitored at the same time with infrared photobeams. Monoamine release mechanisms were determined by using a depolarization blocker, gamma-butyrolactone (γBL). Miniature carbon sensors, BRODERICK PROBE® Lauric Acid Microelectrodes, smaller than a human hair, were used in conjunction with a semidifferential electrochemical circuit, to detect release of each monoamine in separate signals and within seconds. […] The hypothesis for the present studies is derived from a growing body of evidence that cocaine-induced psychosis and schizophrenic psychosis share similar neurochemical and behavioral manifestations.
Animals were purchased from Charles River Laboratories, Kingston, N.Y. and were housed in our animal care facilities for two weeks before surgery was performed. The Animal Care Facility operates under the auspices of the CUNY, City College Institutional Animal Care and Use Committee (IACUC) in compliance with National Institute of Health (NIH) guidelines. The weight range for the animals, at the time of the studies, was 350-475 g. Animals were group housed before surgery, individually housed after surgery and fed Purina Rat Chow and water ad libitum. A twelve hr dark-light cycle was maintained both in the housing of the animals and throughout the experimental studies. […] A Ag/AgCl reference electrode was placed in contact with dura, 7 mm anteriorally and contralaterally to the indicator microelectrode. A stainless steel auxiliary microelectrode, was placed in contact with dura.
In vivo microvoltammetric studies on conscious Sprague-Dawley laboratory rats were begun nine to fifteen days after the aseptic surgical operations were performed. On each experimental day, animals were placed in a Plexiglas-copper faradaic chamber. The three-microelectrode assembly, enclosed within the animal's prosthetic acrylic cap, was connected to a CV37 detector by means of a mercury commutator (Br. Res. Instr., Princeton, N.J.), a flexible cable, and a mating connector (BJM Electronics, Staten Island, N.Y.). The CV37 detector was electrically connected to a Minigard surge suppresser (Jefferson Electric, Magnetek, N.Y.) which was then connected to an electrical ground in isolation. […] Each animal was used as its own control. In vivo microvoltammetric scans were recorded in sec and repeated every five min for a period of 2 hrs before each treatment and a period of two hrs after each treatment.
The first hr pre-drug, allowed exploratory behavior. Exploratory behavior is defined as open-field behavior of ambulations (forward locomotion) and stereotypy (fine movements of sniffing and grooming), wherein animals respond to the stimuli of a novel environment with a high frequency of behavioral counts. The second hr pre-drug allowed the animal to become habituated before treatment. […] In the acute studies, each drug was administered […]. For the subacute studies, twenty four hrs later, the animals were again placed in the faradaic behavioral chamber and no further drug was administered. Each animal was monitored for possible recovery, withdrawal or after-effects. of each treatment WHILE open-field behaviors of locomotions and stereotypy were monitored with computerized infrared photocell beams which surround the faradaic chamber.

[4] = Pharmacokinetics of cocaine and its metabolites (literature); conditions: rat, in vivo, ip; i.p. cocaine, extrapolated
[5] = cited from earlier work

**Q.** With `COC(=O)[C@H]1[C@@H](OC(=O)c2ccccc2)C[C@@H]2CC[C@H]1N2C` [Cocaine, cocaine] as the molecule, how does the “Decrease in DA release on Day 2 compared to drug effect on Day 1” value [1] read?
**A.** Its value is “about 80%”.

**Q.** What about the “Maximum decrease in 5-HT below baseline, Subacute” value ([2]; 24 hr after cocaine 10 mg/kg i.p.) of the same molecule?
**A.** The value was 40%.

**Q.** And the “Decrease in 5-HT release on Day 2 compared to drug effect on Day1” value ([2]; Subacute, cocaine 10 mg/kg i.p. on Day 1, second half hour of the study)?
**A.** The value was “approximately 150%”.

**Q.** What about the “Decrease in 5-HT release on Day 2 compared to drug effect on Day1” value [3] of the same molecule?
**A.** The value was “about 75%”.

**Q.** What about the half-life [4] of the same molecule?
**A.** Its half-life is ~2 h.

**Q.** And the half-life ([5]; i.v. cocaine)?
**A.** Its half-life is 0.5 h.

**Q.** What about the half-life ([5]; s.c. cocaine) of the same molecule?
**A.** The half-life was 4 h.
